Test results from ChEMBL document CHEMBL3286379, “Design and synthesis of pyrimidine molecules endowed with thiazolidin-4-one as new anticancer agents” (Eur J Med Chem, 2014).

Experiments:
[1] = Growth inhibition of human LOXIMVI cells after 48 hrs by sulforhodamine B assay; type: functional; details: LOX IMVI
[2] = Growth inhibition of human HCT15 cells after 48 hrs by sulforhodamine B assay; type: functional; details: HCT-15, 48 h
[3] = Growth inhibition of human OVCAR4 cells after 48 hrs by sulforhodamine B assay; type: functional; details: OVCAR-4, 48 h
IGROV-1 = assay: Growth inhibition of human IGROV1 cells after 48 hrs by sulforhodamine B assay; type: functional; details: IGROV-1, 48 h
[4] = Growth inhibition of human BT549 cells after 48 hrs by sulforhodamine B assay; type: functional; details: BT-549, 48 h
[5] = Growth inhibition of human Hs 578T cells after 48 hrs by sulforhodamine B assay; type: functional
Malme-3M = assay: Growth inhibition of human MALME-3M cells after 48 hrs by sulforhodamine B assay; type: functional
[6] = Growth inhibition of human RXF393 cells after 48 hrs by sulforhodamine B assay; type: functional; details: RXF 393, 48 h
SNB-19 = assay: Growth inhibition of human SNB19 cells after 48 hrs by sulforhodamine B assay; type: functional; details: SNB-19, 48 h
[7] = Growth inhibition of human UO31 cells after 48 hrs by sulforhodamine B assay; type: functional; details: UO-31, 48 h
K562 = assay: Growth inhibition of human K562 cells after 48 hrs by sulforhodamine B assay; type: functional; details: K562, 48 h
SW-620 = assay: Growth inhibition of human SW620 cells after 48 hrs by sulforhodamine B assay; type: functional; details: SW-620, 48 h
SK-MEL-28 = assay: Growth inhibition of human SK-MEL-28 cells after 48 hrs by sulforhodamine B assay; type: functional; details: SK-MEL-28, 48 h
[8] = Growth inhibition of human NCI-ADR-RES cells after 48 hrs by sulforhodamine B assay; type: functional
NCI-H460 = assay: Growth inhibition of human NCI-H460 cells after 48 hrs by sulforhodamine B assay; type: functional; details: NCI-H460, 48 h
HL-60(TB) = assay: Growth inhibition of human HL-60(TB) cells after 48 hrs by sulforhodamine B assay; type: functional; details: HL-60, 48 h
TK-10 = assay: Growth inhibition of human TK10 cells after 48 hrs by sulforhodamine B assay; type: functional; details: TK-10, 48 h
M14 = assay: Growth inhibition of human M14 cells after 48 hrs by sulforhodamine B assay; type: functional; details: M14, 48 h
Rattus norvegicus = assay: Hepatotoxicity in rat assessed as SGOT level at 0.12 mg/kg, po after 12 days (reference value: 140.23 +/- 1.39 U/mL); type: toxicity, organism-based; design: dose 0.12 mg/kg, route oral; details: in vivo, 288 h
COLO 205 = assay: Growth inhibition of human COLO205 cells after 48 hrs by sulforhodamine B assay; type: functional; details: COLO 205, 48 h
HCT-116 = assay: Growth inhibition of human HCT116 cells after 48 hrs by sulforhodamine B assay; type: functional; details: HCT-116, 48 h
[9] = read-out: LC50 (the source's name)
[10] = read-out: pLC50 (the source's name) (converted)

Structure (SMILES): Nc1nc(-c2ccccc2Cl)cc(-c2ccc(Cl)cc2Cl)n1
- GI50 ([1]; read-out: GI50): 4.89 µM
- CC50 [1, 9]: > 100 µM
- TGI ([1]; read-out: TGI): > 100 µM
- GI50 ([1]; read-out: pGI50 (converted)): 4.9 µM
- CC50 [1, 10]: > 100 µM
- TGI ([1]; read-out: pTGI): > 100 µM
- GI50 ([2]; read-out: GI50): 5.09 µM
- CC50 [2, 9]: > 100 µM
- TGI ([2]; read-out: TGI): > 100 µM
- GI50 ([2]; read-out: pGI50 (converted)): 5.13 µM
- CC50 [2, 10]: > 100 µM
- TGI ([2]; read-out: pTGI): > 100 µM
- GI50 [3]: 12 µM
- CC50 [3, 9]: > 100 µM
- CC50 [3, 10]: > 100 µM
- TGI ([3]; read-out: pTGI (converted)): 89.1 µM
- GI50 (IGROV-1; read-out: GI50): 12.3 µM
- CC50 (IGROV-1; [9]): > 100 µM
- TGI (IGROV-1; read-out: TGI): > 100 µM
- GI50 (IGROV-1; read-out: pGI50 (converted)): 12.3 µM
- CC50 (IGROV-1; [10]): > 100 µM
- TGI (IGROV-1; read-out: pTGI): > 100 µM
- GI50 ([4]; read-out: GI50): 13.8 µM
- CC50 [4, 9]: > 100 µM
- TGI ([4]; read-out: TGI): > 100 µM
- GI50 ([4]; read-out: pGI50 (converted)): 13.8 µM
- CC50 [4, 10]: > 100 µM
- TGI ([4]; read-out: pTGI): > 100 µM
- GI50 ([5]; read-out: GI50): 6.04 µM
- CC50 [5, 9]: > 100 µM
- TGI ([5]; read-out: TGI): 60.7 µM
- GI50 ([5]; read-out: pGI50 (converted)): 6.03 µM
- CC50 [5, 10]: > 100 µM
- TGI ([5]; read-out: pTGI (converted)): 60.3 µM
- GI50 (Malme-3M; read-out: GI50): 17.7 µM
- CC50 (Malme-3M; [9]): > 100 µM
- TGI (Malme-3M; read-out: TGI): > 100 µM
- GI50 (Malme-3M; read-out: pGI50 (converted)): 17.8 µM
- CC50 (Malme-3M; [10]): > 100 µM
- TGI (Malme-3M; read-out: pTGI): > 100 µM
- GI50 ([6]; read-out: GI50): 2670 nM
- CC50 [6, 9]: > 100 µM
- TGI ([6]; read-out: TGI): 10.7 µM
- GI50 ([6]; read-out: pGI50 (converted)): 2690 nM
- CC50 [6, 10]: > 100 µM
- TGI ([6]; read-out: pTGI (converted)): 10.7 µM
- GI50 (SNB-19; read-out: GI50): 16.1 µM
- CC50 (SNB-19; [9]): > 100 µM
- TGI (SNB-19; read-out: TGI): > 100 µM
- GI50 (SNB-19; read-out: pGI50 (converted)): 16.2 µM
- CC50 (SNB-19; [10]): > 100 µM
- TGI (SNB-19; read-out: pTGI): > 100 µM
- GI50 ([7]; read-out: GI50): 13.5 µM
- CC50 [7, 9]: > 100 µM
- TGI ([7]; read-out: TGI): > 100 µM
- GI50 ([7]; read-out: pGI50 (converted)): 13.5 µM
- CC50 [7, 10]: > 100 µM
- TGI ([7]; read-out: pTGI): > 100 µM
- GI50 (K562; read-out: GI50): 3.97 µM
- CC50 (K562; [9]): > 100 µM
- TGI (K562; read-out: TGI): > 100 µM
- GI50 (K562; read-out: pGI50 (converted)): 3.98 µM
- CC50 (K562; [10]): > 100 µM
- TGI (K562; read-out: pTGI): > 100 µM
- GI50 (SW-620; read-out: GI50): 3.41 µM
- CC50 (SW-620; [9]): > 100 µM
- TGI (SW-620; read-out: TGI): > 100 µM
- GI50 (SW-620; read-out: pGI50 (converted)): 3.39 µM
- CC50 (SW-620; [10]): > 100 µM
- TGI (SW-620; read-out: pTGI): > 100 µM
- GI50 (SK-MEL-28; read-out: GI50): 20.9 µM
- CC50 (SK-MEL-28; [9]): > 100 µM
- TGI (SK-MEL-28; read-out: TGI): > 100 µM
- GI50 (SK-MEL-28; read-out: pGI50 (converted)): 20.9 µM
- CC50 (SK-MEL-28; [10]): > 100 µM
- TGI (SK-MEL-28; read-out: pTGI): > 100 µM
- GI50 ([8]; read-out: GI50): 14.8 µM
- CC50 [8, 9]: > 100 µM
- TGI ([8]; read-out: TGI): > 100 µM
- GI50 ([8]; read-out: pGI50 (converted)): 14.8 µM
- CC50 [8, 10]: > 100 µM
- TGI ([8]; read-out: pTGI): > 100 µM
- GI50 (NCI-H460; read-out: GI50): 3.31 µM
- CC50 (NCI-H460; [9]): > 100 µM
- TGI (NCI-H460; read-out: TGI): 23.1 µM
- GI50 (NCI-H460; read-out: pGI50 (converted)): 3.31 µM
- CC50 (NCI-H460; [10]): > 100 µM
- TGI (NCI-H460; read-out: pTGI (converted)): 22.9 µM
- GI50 (HL-60(TB); read-out: GI50): 3.14 µM
- CC50 (HL-60(TB); [9]): > 100 µM
- TGI (HL-60(TB); read-out: TGI): 17.3 µM
- GI50 (HL-60(TB); read-out: pGI50 (converted)): 3.16 µM
- CC50 (HL-60(TB); [10]): > 100 µM
- TGI (HL-60(TB); read-out: pTGI (converted)): 17.4 µM
- GI50 (TK-10; read-out: GI50): 9.46 µM
- CC50 (TK-10; [9]): > 100 µM
- TGI (TK-10; read-out: TGI): 51 µM
- GI50 (TK-10; read-out: pGI50 (converted)): 9.55 µM
- CC50 (TK-10; [10]): > 100 µM
- TGI (TK-10; read-out: pTGI (converted)): 51.3 µM
- GI50 (M14; read-out: GI50): 5.95 µM
- CC50 (M14; [9]): > 100 µM
- TGI (M14; read-out: TGI): > 100 µM
- GI50 (M14; read-out: pGI50 (converted)): 5.89 µM
- CC50 (M14; [10]): > 100 µM
- TGI (M14; read-out: pTGI): > 100 µM
- Activity (Rattus norvegicus): 133.47 U/ml
- GI50 (COLO 205; read-out: GI50): 3.52 µM
- CC50 (COLO 205; [9]): 53 µM
- TGI (COLO 205; read-out: TGI): 15.5 µM
- GI50 (COLO 205; read-out: pGI50 (converted)): 3.55 µM
- CC50 (COLO 205; [10]): 52.5 µM
- TGI (COLO 205; read-out: pTGI (converted)): 15.5 µM
- GI50 (HCT-116; read-out: GI50): 4.27 µM
- CC50 (HCT-116; [9]): > 100 µM
- TGI (HCT-116; read-out: TGI): > 100 µM
- GI50 (HCT-116; read-out: pGI50 (converted)): 4.27 µM
- CC50 (HCT-116; [10]): > 100 µM
- TGI (HCT-116; read-out: pTGI): > 100 µM
